# In patent US20240197890A1, “FLAVONE DERIVATIVES AND USES IN TARGETING CK2-MEDIATED DISEASES AND CONDITIONS” (Salk Institute for Biological Studies, priority 2020, published 2024):
# System: IL6 expression
# Experiment: IL6 expression in AD patient iPSC-derived astrocytes after IL1-β stimulation (qRT-PCR)
# Format: cell-based, human
# Settings: controls and AD astrocytes
smiles,measurement,value
"COc1cc(-c2cc(=O)c3c(O)cc(O)cc3o2)ccc1O [CHR, chrysoeriol]",IL6 expression after IL1-β stimulation,reduced
